Assay results: ChEMBL document CHEMBL5291721, “A preclinical secondary pharmacology resource illuminates target-adverse drug reaction associations of marketed drugs” (Nat Commun, 2023)

Key:
[1] = molecular target: T1, Gastrin/cholecystokinin type B receptor (Homo sapiens, UniProt P32239)
T1 sequence (P32239 whole entry): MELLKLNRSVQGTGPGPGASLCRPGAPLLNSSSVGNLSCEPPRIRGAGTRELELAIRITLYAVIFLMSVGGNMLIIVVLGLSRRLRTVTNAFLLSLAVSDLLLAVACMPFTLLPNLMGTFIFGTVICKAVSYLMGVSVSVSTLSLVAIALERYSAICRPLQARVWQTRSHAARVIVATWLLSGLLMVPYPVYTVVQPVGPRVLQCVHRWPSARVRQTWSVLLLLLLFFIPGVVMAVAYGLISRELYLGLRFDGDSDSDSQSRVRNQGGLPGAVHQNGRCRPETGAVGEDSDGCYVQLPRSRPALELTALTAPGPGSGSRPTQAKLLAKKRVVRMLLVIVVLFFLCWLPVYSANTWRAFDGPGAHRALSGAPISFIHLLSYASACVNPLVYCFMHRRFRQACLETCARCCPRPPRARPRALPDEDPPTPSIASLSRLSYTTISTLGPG

Motilin receptor = Motilin receptor (Homo sapiens, UniProt O43193)
Motilin receptor, sequence (O43193 whole entry): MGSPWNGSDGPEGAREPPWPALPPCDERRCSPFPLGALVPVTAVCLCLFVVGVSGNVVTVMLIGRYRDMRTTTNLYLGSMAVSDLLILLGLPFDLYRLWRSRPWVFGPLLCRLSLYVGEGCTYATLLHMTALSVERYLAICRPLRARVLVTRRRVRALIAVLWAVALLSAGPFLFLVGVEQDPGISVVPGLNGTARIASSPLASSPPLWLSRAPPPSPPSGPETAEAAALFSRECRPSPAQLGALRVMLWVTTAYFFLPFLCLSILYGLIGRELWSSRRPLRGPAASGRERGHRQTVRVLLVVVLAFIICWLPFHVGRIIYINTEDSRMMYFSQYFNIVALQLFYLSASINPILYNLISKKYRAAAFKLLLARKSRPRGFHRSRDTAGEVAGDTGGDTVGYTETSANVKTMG

[2] = molecular target: T2, Amine oxidase [flavin-containing] A (Homo sapiens, UniProt P21397); assay type: functional
T2 sequence (P21397 whole entry): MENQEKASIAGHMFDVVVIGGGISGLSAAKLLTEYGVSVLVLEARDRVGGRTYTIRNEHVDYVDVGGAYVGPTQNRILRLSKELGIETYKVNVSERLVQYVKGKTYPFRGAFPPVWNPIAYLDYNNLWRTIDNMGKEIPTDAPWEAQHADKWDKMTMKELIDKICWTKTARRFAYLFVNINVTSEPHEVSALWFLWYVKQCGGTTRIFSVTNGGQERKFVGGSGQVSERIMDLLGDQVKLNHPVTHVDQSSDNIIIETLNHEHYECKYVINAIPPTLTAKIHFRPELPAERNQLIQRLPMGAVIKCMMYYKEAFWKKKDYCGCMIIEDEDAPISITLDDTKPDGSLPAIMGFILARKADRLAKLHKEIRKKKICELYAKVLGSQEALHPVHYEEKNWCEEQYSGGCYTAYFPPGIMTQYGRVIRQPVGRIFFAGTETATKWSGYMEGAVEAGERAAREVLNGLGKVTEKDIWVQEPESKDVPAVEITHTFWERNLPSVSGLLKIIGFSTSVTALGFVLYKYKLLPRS

Progesterone receptor = molecular target: T3, Progesterone receptor (Homo sapiens, UniProt P06401); assay type: functional
T3 sequence (P06401 whole entry): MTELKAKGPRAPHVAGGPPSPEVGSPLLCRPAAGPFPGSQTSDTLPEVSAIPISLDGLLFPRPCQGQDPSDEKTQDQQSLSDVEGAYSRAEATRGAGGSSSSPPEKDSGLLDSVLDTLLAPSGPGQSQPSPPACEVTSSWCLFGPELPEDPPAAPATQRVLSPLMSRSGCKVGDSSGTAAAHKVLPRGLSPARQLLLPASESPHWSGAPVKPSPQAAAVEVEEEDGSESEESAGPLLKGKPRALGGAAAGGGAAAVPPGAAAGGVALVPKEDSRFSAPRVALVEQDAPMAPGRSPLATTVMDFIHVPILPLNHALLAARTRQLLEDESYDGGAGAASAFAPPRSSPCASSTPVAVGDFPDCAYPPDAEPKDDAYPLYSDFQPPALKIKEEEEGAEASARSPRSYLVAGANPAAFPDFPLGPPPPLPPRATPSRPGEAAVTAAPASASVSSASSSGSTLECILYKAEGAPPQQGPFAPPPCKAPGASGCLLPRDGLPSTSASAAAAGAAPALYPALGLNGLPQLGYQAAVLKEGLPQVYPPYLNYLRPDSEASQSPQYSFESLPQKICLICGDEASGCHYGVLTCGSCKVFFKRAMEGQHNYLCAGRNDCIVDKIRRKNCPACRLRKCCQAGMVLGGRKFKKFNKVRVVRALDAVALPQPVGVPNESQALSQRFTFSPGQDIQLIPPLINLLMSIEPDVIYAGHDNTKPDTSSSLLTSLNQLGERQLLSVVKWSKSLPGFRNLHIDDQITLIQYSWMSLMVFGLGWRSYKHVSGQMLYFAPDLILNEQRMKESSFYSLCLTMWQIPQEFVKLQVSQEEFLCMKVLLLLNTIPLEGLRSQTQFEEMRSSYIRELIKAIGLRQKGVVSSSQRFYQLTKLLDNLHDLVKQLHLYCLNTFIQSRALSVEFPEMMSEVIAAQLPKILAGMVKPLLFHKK

[3] = molecular target: T4, Neuropeptide Y receptor type 1 (Homo sapiens, UniProt P25929)
T4 sequence (P25929 whole entry): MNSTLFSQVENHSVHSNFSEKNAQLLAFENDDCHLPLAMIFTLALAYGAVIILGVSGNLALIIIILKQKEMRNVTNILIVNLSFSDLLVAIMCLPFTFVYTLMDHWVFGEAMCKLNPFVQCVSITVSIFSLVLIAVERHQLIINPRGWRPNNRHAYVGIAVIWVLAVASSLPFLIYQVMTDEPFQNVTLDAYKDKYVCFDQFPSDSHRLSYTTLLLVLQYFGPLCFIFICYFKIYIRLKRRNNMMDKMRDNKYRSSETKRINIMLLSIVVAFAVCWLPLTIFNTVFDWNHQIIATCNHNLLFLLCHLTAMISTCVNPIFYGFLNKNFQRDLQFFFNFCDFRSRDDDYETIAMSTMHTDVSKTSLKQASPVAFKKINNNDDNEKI

[4] = molecular target: T5, 5-hydroxytryptamine receptor 1A (Homo sapiens, UniProt P08908); assay type: functional, cell-based
T5 sequence (P08908 whole entry): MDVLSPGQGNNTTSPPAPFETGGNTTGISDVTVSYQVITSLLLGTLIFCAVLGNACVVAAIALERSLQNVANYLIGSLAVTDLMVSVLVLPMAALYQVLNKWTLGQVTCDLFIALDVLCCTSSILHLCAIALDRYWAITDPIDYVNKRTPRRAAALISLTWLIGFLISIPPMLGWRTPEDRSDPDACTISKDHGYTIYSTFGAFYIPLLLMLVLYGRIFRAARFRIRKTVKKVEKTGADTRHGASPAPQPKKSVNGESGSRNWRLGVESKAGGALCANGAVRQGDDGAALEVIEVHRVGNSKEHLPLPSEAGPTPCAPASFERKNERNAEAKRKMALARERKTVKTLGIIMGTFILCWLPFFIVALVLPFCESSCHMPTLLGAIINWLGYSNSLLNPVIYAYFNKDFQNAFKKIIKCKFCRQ

D(1A) dopamine receptor = D(1A) dopamine receptor (Homo sapiens, UniProt P21728); assay type: functional, cell-based
D(1A) dopamine receptor, sequence (P21728 whole entry): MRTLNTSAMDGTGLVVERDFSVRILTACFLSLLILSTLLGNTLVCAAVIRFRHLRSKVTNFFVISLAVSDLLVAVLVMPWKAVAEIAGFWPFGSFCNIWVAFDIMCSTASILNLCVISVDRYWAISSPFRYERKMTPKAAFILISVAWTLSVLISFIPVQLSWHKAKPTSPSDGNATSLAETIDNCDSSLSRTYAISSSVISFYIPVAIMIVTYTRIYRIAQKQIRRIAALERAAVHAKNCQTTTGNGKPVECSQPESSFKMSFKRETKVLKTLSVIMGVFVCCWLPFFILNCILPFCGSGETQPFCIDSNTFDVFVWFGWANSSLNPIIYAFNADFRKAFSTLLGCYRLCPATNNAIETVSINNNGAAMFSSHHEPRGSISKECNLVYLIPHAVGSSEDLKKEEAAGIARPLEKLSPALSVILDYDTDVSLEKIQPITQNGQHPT

[5] = molecular target: Kappa-type opioid receptor (Homo sapiens, UniProt P41145)
Kappa-type opioid receptor, sequence (P41145 whole entry): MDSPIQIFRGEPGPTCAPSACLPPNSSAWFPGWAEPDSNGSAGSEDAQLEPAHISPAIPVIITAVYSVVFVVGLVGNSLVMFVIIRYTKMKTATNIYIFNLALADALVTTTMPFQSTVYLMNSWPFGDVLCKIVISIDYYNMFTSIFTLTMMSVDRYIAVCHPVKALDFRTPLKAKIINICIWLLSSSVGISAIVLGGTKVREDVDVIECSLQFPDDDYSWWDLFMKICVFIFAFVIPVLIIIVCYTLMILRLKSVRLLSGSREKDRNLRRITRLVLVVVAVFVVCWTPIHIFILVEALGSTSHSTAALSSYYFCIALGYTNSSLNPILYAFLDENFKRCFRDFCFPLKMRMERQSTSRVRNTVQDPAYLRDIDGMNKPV

[6] = molecular target: Voltage-gated inwardly rectifying potassium channel KCNH2 (Homo sapiens, UniProt Q12809); assay type: functional
Voltage-gated inwardly rectifying potassium channel KCNH2, sequence (Q12809 whole entry): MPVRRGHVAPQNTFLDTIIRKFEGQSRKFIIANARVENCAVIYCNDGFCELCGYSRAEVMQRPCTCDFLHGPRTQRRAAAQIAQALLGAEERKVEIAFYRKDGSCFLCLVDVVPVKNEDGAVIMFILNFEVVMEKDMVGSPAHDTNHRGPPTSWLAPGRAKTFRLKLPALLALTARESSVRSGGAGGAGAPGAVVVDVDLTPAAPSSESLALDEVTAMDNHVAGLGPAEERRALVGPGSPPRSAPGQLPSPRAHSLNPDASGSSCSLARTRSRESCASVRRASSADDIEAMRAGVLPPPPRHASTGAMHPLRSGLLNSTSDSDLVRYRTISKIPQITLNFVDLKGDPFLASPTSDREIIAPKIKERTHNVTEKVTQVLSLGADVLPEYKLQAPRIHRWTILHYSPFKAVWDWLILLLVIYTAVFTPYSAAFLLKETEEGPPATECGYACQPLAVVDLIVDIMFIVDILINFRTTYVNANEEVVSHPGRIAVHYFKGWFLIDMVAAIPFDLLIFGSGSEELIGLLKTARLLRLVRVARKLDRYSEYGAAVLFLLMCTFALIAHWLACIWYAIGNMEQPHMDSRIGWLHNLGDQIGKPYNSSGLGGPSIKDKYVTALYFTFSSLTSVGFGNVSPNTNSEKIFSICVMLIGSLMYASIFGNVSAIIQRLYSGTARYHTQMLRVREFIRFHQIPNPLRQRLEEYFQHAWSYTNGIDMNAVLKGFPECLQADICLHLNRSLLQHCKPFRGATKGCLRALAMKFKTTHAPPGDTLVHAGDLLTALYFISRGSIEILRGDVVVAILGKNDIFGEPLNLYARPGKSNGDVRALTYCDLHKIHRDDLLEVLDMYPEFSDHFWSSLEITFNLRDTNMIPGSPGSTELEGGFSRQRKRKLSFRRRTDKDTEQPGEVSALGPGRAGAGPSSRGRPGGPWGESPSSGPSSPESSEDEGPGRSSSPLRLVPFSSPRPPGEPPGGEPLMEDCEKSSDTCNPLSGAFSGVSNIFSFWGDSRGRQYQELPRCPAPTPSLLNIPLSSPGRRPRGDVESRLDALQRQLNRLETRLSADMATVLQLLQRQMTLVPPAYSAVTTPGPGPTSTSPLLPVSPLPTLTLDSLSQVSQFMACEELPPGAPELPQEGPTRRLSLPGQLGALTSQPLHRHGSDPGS
Note: assay procedure not described here.

Row | SMILES | AC50 [1] | AC50 (Motilin receptor) | AC50 [2] | AC50 (Progesterone receptor) | AC50 [3] | AC50 [4] | AC50 (D(1A) dopamine receptor) | AC50 [5] | AC50 [6]
1 | C=CC[N+]1([C@H]2C[C@H]3[C@@H]4CC[C@H]5C[C@H](O)[C@@H](N6CCOCC6)C[C@]5(C)[C@H]4CC[C@]3(C)[C@H]2OC(C)=O)CCCC1 [ROCURONIUM] | > 30 µM | > 30 µM | > 30 µM | > 30 µM | > 30 µM | > 30 µM | > 30 µM | > 30 µM | 1.06 µM
2 | CCCN1CCCC[C@H]1C(=O)Nc1c(C)cccc1C [ROPIVACAINE] | > 30 µM | > 30 µM | > 30 µM | > 30 µM | > 30 µM | > 30 µM | > 30 µM | > 30 µM | > 30 µM
3 | CCN1CCCC1CNC(=O)c1cc(S(=O)(=O)CC)ccc1OC (configuration not stated) [SULTOPRIDE] | > 30 µM | > 30 µM | > 30 µM | > 30 µM | > 30 µM | > 30 µM | > 30 µM | > 30 µM | 3.5 µM
4 | C=CCN1CCc2nc(N)sc2CC1 [TALIPEXOLE] | > 30 µM | > 30 µM | > 30 µM | > 30 µM | > 30 µM | > 30 µM | > 30 µM | 17 µM | > 30 µM
5 | Cn1c(=O)c2c(ncn2CCOC(=O)C(C)(C)Oc2ccc(Cl)cc2)n(C)c1=O [THEOFIBRATE] | > 30 µM | > 30 µM | > 30 µM | > 30 µM | > 30 µM | > 30 µM | > 30 µM | > 30 µM | > 30 µM
6 | COc1cc(C(=O)NC2CCCNC2)cc(OC)c1OC (configuration not stated) [TROXIPIDE] | > 30 µM | > 30 µM | > 30 µM | > 30 µM | > 30 µM | > 30 µM | > 30 µM | 16 µM | > 30 µM
7 | CC(C)(C)NCC(O)c1ccccc1Cl (configuration not stated) [TULOBUTEROL] | > 30 µM | > 30 µM | > 30 µM | > 30 µM | > 30 µM | > 30 µM | > 30 µM | > 30 µM | > 30 µM
8 | CC(C(=O)O)c1ccc2c(c1)CC(=O)c1ccccc1S2 (configuration not stated) [ZALTOPROFEN] | > 30 µM | > 30 µM | > 30 µM | > 30 µM | > 30 µM | > 30 µM | > 30 µM | 24 µM | > 30 µM
